{"source": "patent US20070154581A1", "about": "“Composition and method for enhancing or stimulating the immune system” (priority 2005, published 2007)", "key": {"[1]": {"test_system": "phosphatidylcholine biosynthesis", "settings": "cited from earlier work"}, "[2]": {"test_system": "Trypanosoma cruzi", "settings": "cited from earlier work"}, "[3]": {"test_system": "human immunodeficiency virus-infected cell system", "settings": "cited from earlier work"}, "[4]": {"settings": "alliin in itself; cited from earlier work"}, "[5]": {"test_system": "Salmonella typhimurium", "settings": "0.2 to 0.5 mM; cited from earlier work"}, "[6]": {"test_system": "Pseudomonas aeruginosa", "settings": "cited from earlier work"}, "[7]": {"test_system": "S. fiexneri Y", "settings": "rabbit; cited from earlier work"}, "[8]": {"test_system": "Acetate incorporation into fatty acids of isolated plastids", "settings": "read-out: 50% inhibitory concentration (I 50 value); cited from earlier work"}, "[9]": {"test_system": "Escherichia coli", "settings": "cited from earlier work"}, "[10]": {"test_system": "Streptococcus β hemolyticus", "settings": "Clinical MDR strain; cited from earlier work"}, "[11]": {"test_system": "Candida parapsilosis", "settings": "cited from earlier work"}, "[12]": {"test_system": "Acinetobacter baumanii", "settings": "Clinical isolate; cited from earlier work"}, "[13]": {"test_system": "Candida albicans", "settings": "cited from earlier work"}, "[14]": {"test_system": "Klebsiella pneumoniae", "settings": "Clinical isolate; cited from earlier work"}, "[15]": {"biological_target": "NADP-dependent alcohol dehydrogenase (Thermoanaerobacter brockii, UniProt P14941)", "sequence (P14941 whole entry)": "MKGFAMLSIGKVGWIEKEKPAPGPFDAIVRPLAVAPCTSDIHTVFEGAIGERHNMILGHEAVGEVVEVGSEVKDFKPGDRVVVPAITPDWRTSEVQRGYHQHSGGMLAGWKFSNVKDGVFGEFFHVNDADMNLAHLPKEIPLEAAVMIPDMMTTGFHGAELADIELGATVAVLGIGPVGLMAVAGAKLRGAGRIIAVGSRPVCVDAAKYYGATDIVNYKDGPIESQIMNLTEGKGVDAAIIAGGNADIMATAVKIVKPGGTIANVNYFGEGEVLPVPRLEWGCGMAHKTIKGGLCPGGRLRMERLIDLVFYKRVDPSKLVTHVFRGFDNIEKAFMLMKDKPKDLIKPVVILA", "assay": "Inhibition of thiol enzymes by allicin", "format": "biochemical, Thermoanaerobium brockii", "settings": "could be reactivated with thiol-containing compounds"}, "[16]": {"test_system": "Enterococcus faecium", "settings": "Clinical MDR strain; cited from earlier work"}, "[17]": {"test_system": "Giardia lamblia", "settings": "30 μg/mL; cited from earlier work"}, "[18]": {"test_system": "thioredoxin reductases", "assay": "Inhibition of thiol-containing enzymes of the amoeba parasite", "format": "biochemical"}, "[19]": {"test_system": "Leptornonas colosoma", "settings": "30 μg/mL; cited from earlier work"}, "[20]": {"test_system": "mucoid strains of Pseudomonas aeruginosa, Streptococcus β hemnolyticus and Enterococcus faecium", "settings": "cited from earlier work"}, "[21]": {"settings": "Candida neoformans; cited from earlier work"}, "[22]": {"test_system": "Staphylococcus aureus", "settings": "cited from earlier work"}, "[23]": {"test_system": "Proteus mirabilis", "settings": "cited from earlier work"}, "[24]": {"test_system": "Entainoeba histolytica", "settings": "cited from earlier work"}, "[25]": {"test_system": "Candida", "settings": "pure allicin; cited from earlier work"}, "[26]": {"test_system": "trophozoites of E. histolytica", "settings": "5 μg/mL, in vitro; cited from earlier work"}, "[27]": {"test_system": "Candida tropicalis", "settings": "cited from earlier work"}, "[28]": {"test_system": "tissue-cultured mammalian cells", "settings": "cited from earlier work"}, "[29]": {"biological_target": "T1, NAD-dependent alcohol dehydrogenase (Equus caballus, UniProt P00327)", "T1 construct": "the NAD-dependent alcohol dehydrogenase from horse liver; from tissue; host or cells: horse liver", "T1 sequence (P00327 2-375 limits assumed)": "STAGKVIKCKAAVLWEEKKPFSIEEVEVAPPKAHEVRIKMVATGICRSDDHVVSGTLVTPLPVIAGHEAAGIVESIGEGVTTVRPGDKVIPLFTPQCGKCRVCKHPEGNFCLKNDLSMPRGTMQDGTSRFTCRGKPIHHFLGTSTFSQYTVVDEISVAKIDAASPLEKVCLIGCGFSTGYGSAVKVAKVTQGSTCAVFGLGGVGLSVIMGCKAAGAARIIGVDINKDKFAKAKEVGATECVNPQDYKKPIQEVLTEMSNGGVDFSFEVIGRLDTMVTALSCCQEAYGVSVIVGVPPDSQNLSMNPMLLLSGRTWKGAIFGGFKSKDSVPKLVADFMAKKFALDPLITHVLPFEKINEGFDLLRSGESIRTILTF", "assay": "Inhibition of thiol enzymes by allicin", "format": "biochemical, horse", "settings": "could be reactivated with thiol-containing compounds"}, "[30]": {"biological_target": "acetyl-CoA-forming system, consisting of acetate kinase and phosphotransacetyl-CoA synthetase", "settings": "cited from earlier work"}, "[31]": {"biological_target": "thiol-protease papain (Carica papaya, UniProt P00784)", "sequence (P00784 134-345)": "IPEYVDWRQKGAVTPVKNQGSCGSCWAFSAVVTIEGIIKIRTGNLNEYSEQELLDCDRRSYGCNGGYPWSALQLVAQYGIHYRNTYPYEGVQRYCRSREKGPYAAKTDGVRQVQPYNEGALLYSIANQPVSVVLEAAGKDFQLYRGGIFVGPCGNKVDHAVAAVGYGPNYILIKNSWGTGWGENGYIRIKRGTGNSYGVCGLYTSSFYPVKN", "assay": "Inhibition of thiol enzymes by allicin", "format": "biochemical", "settings": "could be reactivated with thiol-containing compounds"}, "[32]": {"test_system": "Torulopsis glabrata", "settings": "cited from earlier work"}, "[33]": {"test_system": "cysteine proteinases", "assay": "Inhibition of thiol-containing enzymes of the amoeba parasite", "format": "biochemical"}, "[34]": {"test_system": "methicillin resistant Staphylococcus aureus, multidrug-resistant enterotoxicogenic Escherichia coli, Enterococcus, Shigella dysenteriae, S. flexneni and S. …", "settings": "strains resistant to antibiotics; cited from earlier work"}, "[35]": {"test_system": "Crithidia fasciculata", "settings": "30 μg/mL; cited from earlier work"}, "[36]": {"test_system": "Streptococcus progenies", "settings": "Sensitive; cited from earlier work"}, "[37]": {"test_system": "tissue-cultured mammalian cells"}, "[38]": {"test_system": "Candida krusei", "settings": "cited from earlier work"}, "[39]": {"test_system": "alcohol dehydrogenases", "assay": "Inhibition of thiol-containing enzymes of the amoeba parasite", "format": "biochemical"}, "[40]": {"test_system": "Leishmania major", "settings": "30 μg/mL; cited from earlier work"}}, "note": "Where two headings read alike, the source gives them in different places."}
{"molecule": "C=CCSSC=CC[S+]([O-])CC=C", "note": "(mixture of isomers) [ajoene]", "values": [{"measurement": "phosphatidylcholine biosynthesis", "setting": "[1]", "result": "inhibit phosphatidylcholine biosynthesis"}, {"measurement": "proliferation of Trypanosoma cruzi", "setting": "[2]", "result": "inhibit the proliferation"}, {"measurement": "integrin-dependent processes", "setting": "[3]", "result": "block the integrin-dependent processes"}]}
{"molecule": "(+)-S-allyl-L-cysteine-sulfoxide [alliin]", "values": [{"measurement": "antimicrobial activity", "setting": "[4]", "result": "no antimicrobial activity"}]}
{"molecule": "C=CCS[S+]([O-])CC=C", "note": "(centres unmarked) [allicin]", "values": [{"measurement": "effect on DNA and protein synthesis", "setting": "[5]", "result": "partially inhibit"}, {"measurement": "effect on RNA synthesis", "setting": "[5]", "result": "immediate"}, {"measurement": "Allicin Concentration (LD50 ug/ml)", "setting": "[6]; MDR mucoid strain", "result": ">100", "unit": "µg/mL"}, {"measurement": "Allicin Concentration (LD50 ug/ml)", "setting": "[6]; Sensitive to cefprozil", "result": 15, "unit": "µg/mL"}, {"measurement": "antibacterial activity in vivo", "setting": "[7]", "result": "in vivo antibacterial activity"}, {"measurement": "IC50", "setting": "[8]", "result": "< 10", "unit": "mM"}, {"measurement": "Allicin Concentration (LD50 ug/ml)", "setting": "[9]; Multidrug resistant MDR", "result": 15, "unit": "µg/mL"}, {"measurement": "Allicin Concentration (LD50 ug/ml)", "setting": "[9]; Sensitive to antibiotics", "result": 15, "unit": "µg/mL"}, {"measurement": "Allicin Concentration (LD50 ug/ml)", "setting": "[10]", "result": ">100", "unit": "µg/mL"}, {"measurement": "Allicin concentration MIC", "setting": "[11]", "result": 0.15, "unit": "µg/mL"}, {"measurement": "Allicin Concentration (LD50 ug/ml)", "setting": "[12]", "result": 15, "unit": "µg/mL"}, {"measurement": "Allicin concentration MIC", "setting": "[13]; Clinical isolates", "result": 0.8, "unit": "µg/mL"}, {"measurement": "Allicin concentration MIC", "setting": "[13]", "result": 0.3, "unit": "µg/mL"}, {"measurement": "Allicin Concentration (LD50 ug/ml)", "setting": "[14]", "result": 8, "unit": "µg/mL"}, {"measurement": "inhibition of NADP-dependent alcohol dehydrogenase from Thermoanaerobium brockii", "setting": "[15]", "result": "irreversibly inhibited"}, {"measurement": "Allicin Concentration (LD50 ug/ml)", "setting": "[16]", "result": ">100", "unit": "µg/mL"}, {"measurement": "growth inhibition", "setting": "[17]", "result": "very efficiently inhibited"}, {"measurement": "concentration at which inhibition was observed", "setting": "[18]", "result": "> 10", "unit": "µg/mL"}, {"measurement": "growth inhibition", "setting": "[19]", "result": "very efficiently inhibited"}, {"measurement": "sensitivity to allicin", "setting": "[20]", "result": "resistant"}, {"measurement": "Allicin concentration MIC", "setting": "[21]", "result": 0.3, "unit": "µg/mL"}, {"measurement": "Allicin Concentration (LD50 ug/ml)", "setting": "[22]; Methicillin resistant", "result": 12, "unit": "µg/mL"}, {"measurement": "Allicin Concentration (LD50 ug/ml)", "setting": "[22]; Sensitive", "result": 12, "unit": "µg/mL"}, {"measurement": "Allicin Concentration (LD50 ug/ml)", "setting": "[23]; Prloteus marbles, Sensitive", "result": 15, "unit": "µg/mL"}, {"measurement": "Allicin Concentration (LD50 ug/ml)", "setting": "[23]; Proteus mirabilis, Clinical MDR strain", "result": ">30", "unit": "µg/mL"}, {"measurement": "concentration that totally inhibits the growth of amoeba cultures", "setting": "[24]", "result": 30, "unit": "µg/mL"}, {"measurement": "minimum inhibitory concentration", "setting": "[25]", "result": 7, "unit": "µg/mL"}, {"measurement": "inhibition of virulence of trophozoites", "setting": "[26]", "result": 90, "unit": "%"}, {"measurement": "Allicin concentration MIC", "setting": "[27]", "result": 0.3, "unit": "µg/mL"}, {"measurement": "concentration at which some toxicity towards tissue-cultured mammalian cells was observed", "setting": "[28]", "result": "above 100 μM"}, {"measurement": "inhibition of NAD-dependent alcohol dehydrogenase from horse liver", "setting": "[29]", "result": "irreversibly inhibited"}, {"measurement": "kind of inhibition", "setting": "[30]", "result": "noncovalent and reversible"}, {"measurement": "inhibition of papain", "setting": "[31]", "result": "irreversibly inhibited"}, {"measurement": "Allicin concentration MIC", "setting": "[32]; Clinical isolates", "result": 1.9, "unit": "µg/mL"}, {"measurement": "Allicin concentration MIC", "setting": "[32]", "result": 0.3, "unit": "µg/mL"}, {"measurement": "concentration at which inhibition was observed", "setting": "[33]", "result": "> 10", "unit": "µg/mL"}, {"measurement": "sensitivity to allicin", "setting": "[34]", "result": "sensitive"}, {"measurement": "growth inhibition", "setting": "[35]", "result": "very efficiently inhibited"}, {"measurement": "Allicin Concentration (LD50 ug/ml)", "setting": "[36]", "result": 3, "unit": "µg/mL"}, {"measurement": "concentration toxic to tissue-cultured mammalian cells", "setting": "[37]", "result": "> 100", "unit": "µg/mL"}, {"measurement": "Allicin concentration MIC", "setting": "[38]", "result": 0.3, "unit": "µg/mL"}, {"measurement": "concentration at which inhibition was observed", "setting": "[39]", "result": "> 10", "unit": "µg/mL"}, {"measurement": "growth inhibition", "setting": "[40]", "result": "very efficiently inhibited"}]}
